From ChEMBL document CHEMBL4422652, “Synthesis and biological evaluation of novel oleanolic acid analogues as potential α-glucosidase inhibitors” (Eur J Med Chem, 2019)
Blank lines part the entries; values can stand above or below the compound they belong to. Active and inactive are the calls of the source. The rule behind the calls is not given here.

Legend:
[1] = Inhibition of baker's yeast alpha-glucosidase using phenol-alphaD-glycopyranoside as substrate preincubated for 10 mins followed by substrate addition and measured after 30 mins; design: species or system Saccharomyces cerevisiae
[2] = Inhibition of baker's yeast alpha-glucosidase using PNPG as substrate preincubated for 15 mins followed by substrate addition and measured after 5 mins by spectrophotometric method; design: species or system Saccharomyces cerevisiae
[3] = tested on: Mus musculus; assay: Hypoglycemic activity in streptozocin-induced diabetic Kunming mouse assessed as reduction in blood glucose level at 50 mg/kg, po measured at 7 hrs post dose; assay type: functional, organism-based
[4] = Non-competitive inhibition of baker's yeast alpha-glucosidase using varying levels of phenol-alphaD-glycopyranoside as substrate preincubated for 10 mins followed by substrate addition and measured after 30 mins by double reciprocal plot analysis; design: species or system Saccharomyces cerevisiae
[5] = tested on: Saccharomyces cerevisiae; assay: Non-competitive inhibition of baker's yeast alpha-glucosidase assessed as Km for substrate using varying levels of phenol-alphaD-glycopyranoside as substrate preincubated for 10 mins followed by substrate addition and measured after 30 mins by double reciprocal plot analysis
[6] = tested on: Mus musculus; assay: Hypoglycemic activity in streptozocin-induced diabetic Kunming mouse assessed as blood glucose level at 50 mg/kg, po administered once daily for 18 days measured on day 6 post dose (reference value: 22.31 +/- 1.05 mM); assay type: functional
[7] = tested on: NIH3T3; assay: Cytotoxicity against mouse 3T3 cells assessed as growth inhibition measured after 48 hrs by MTT assay; assay type: cell-based; details: NIH3T3, 48 h
[8] = Toxicity in streptozocin-induced diabetic Kunming mouse assessed as effect on body weight at 50 mg/kg, po administered once daily for 18 days measured every 6 days starting from day 1 during compound dosing; assay type: organism-based; details: in vivo
[9] = tested on: Mus musculus; assay: Hypoglycemic activity in streptozocin-induced diabetic Kunming mouse assessed as reduction in blood glucose AUC at 50 mg/kg, po treated 30 mins prior to glucose challenge and measured up to 210 mins by OGTT; assay type: functional, organism-based
[10] = tested on: Mus musculus; assay: Hypoglycemic activity in streptozocin-induced diabetic Kunming mouse assessed as reduction in blood glucose level at 50 mg/kg, po treated 30 mins prior to glucose challenge and measured up to 210 mins by OGTT; assay type: functional, organism-based
[11] = tested on: Mus musculus; assay: Hypoglycemic activity in streptozocin-induced diabetic Kunming mouse assessed as blood glucose level at 50 mg/kg, po administered once daily for 18 days measured on day 12 post dose (reference value: 23.09 +/- 1.45 mM); assay type: functional
[12] = tested on: Mus musculus; assay: Hypoglycemic activity in streptozocin-induced diabetic Kunming mouse assessed as blood glucose level at 50 mg/kg, po administered once daily for 18 days measured on day 12 post dose (reference value: 23.27 +/- 1.03 mM); assay type: functional
[13] = tested on: Mus musculus; assay: Hypoglycemic activity in streptozocin-induced diabetic Kunming mouse assessed as blood glucose level at 50 mg/kg, po administered once daily for 18 days measured on day 1 post dose (reference value: 18.86 +/- 0.7 mM); assay type: functional
[14] = tested on: Mus musculus; assay: Hypoglycemic activity in streptozocin-induced diabetic Kunming mouse assessed as reduction in blood glucose level at 50 mg/kg, po measured at 9 hrs post dose; assay type: functional, organism-based
[15] = Inhibition of baker's yeast alpha-glucosidase using PNPG as substrate after 10 mins by spectrophotometric method; design: species or system Saccharomyces cerevisiae
[16] = tested on: Mus musculus; assay: Hypoglycemic activity in streptozocin-induced diabetic Kunming mouse assessed as reduction in blood glucose level at 50 mg/kg, po measured at 2 hrs post dose; assay type: functional, organism-based

Structure (SMILES): CC1(C)CC[C@@]23CC[C@]4(C)[C@](OC2=O)([C@H](F)C[C@@H]2[C@@]5(C)C/C(=C\c6ccccc6)C(=O)C(C)(C)[C@@H]5CC[C@]24C)[C@@H]3C1
IC50 [1]: 3.43 µM

Structure (SMILES): CC1(C)CC[C@]2(C(=O)Oc3ccc(C(=O)/C=C/c4ccc(Br)cc4)cc3)CC[C@]3(C)C(=CC[C@@H]4[C@@]5(C)CCC(=O)C(C)(C)[C@@H]5CC[C@]43C)[C@@H]2C1
IC50 [2]: 2.2 µM

Structure (SMILES): Cc1cccc(/C=C2\C[C@]3(C)[C@H]4C[C@@H](F)[C@]56OC(=O)[C@@]7(CCC(C)(C)C[C@H]75)CC[C@@]6(C)[C@]4(C)CC[C@H]3C(C)(C)C2=O)c1
IC50 [1]: 2.16 µM

Structure (SMILES): CC1(C)CC[C@@]23CC[C@]4(C)[C@](OC2=O)([C@H](F)C[C@@H]2[C@@]5(C)C/C(=C\c6cccc(Br)c6)C(=O)C(C)(C)[C@@H]5CC[C@]24C)[C@@H]3C1
IC50 [1]: 1.86 µM

Structure (SMILES): CC1(C)CC[C@@]23CC[C@]4(C)[C@](OC2=O)([C@H](F)C[C@@H]2[C@@]5(C)C/C(=C\c6cccc(F)c6)C(=O)C(C)(C)[C@@H]5CC[C@]24C)[C@@H]3C1
IC50 [1]: 2.79 µM

Structure (SMILES): CC1(C)CC[C@@]23CC[C@]4(C)[C@](OC2=O)([C@H](F)C[C@@H]2[C@@]5(C)C/C(=C\c6ccc(-n7cncn7)cc6)C(=O)C(C)(C)[C@@H]5CC[C@]24C)[C@@H]3C1
IC50 [1]: 3.18 µM

Structure (SMILES): COc1ccccc1/C=C1\C[C@]2(C)[C@H]3C[C@@H](F)[C@]45OC(=O)[C@@]6(CCC(C)(C)C[C@H]64)CC[C@@]5(C)[C@]3(C)CC[C@H]2C(C)(C)C1=O
IC50 [1]: 2.74 µM

Structure (SMILES): CC1(C)CC[C@@]23CC[C@]4(C)[C@](OC2=O)([C@H](F)C[C@@H]2[C@@]5(C)C/C(=C\c6cnccn6)C(=O)C(C)(C)[C@@H]5CC[C@]24C)[C@@H]3C1
IC50 [1]: 3.14 µM

Structure (SMILES): COc1cccc(/C=C2\C[C@]3(C)[C@H]4C[C@@H](F)[C@]56OC(=O)[C@@]7(CCC(C)(C)C[C@H]75)CC[C@@]6(C)[C@]4(C)CC[C@H]3C(C)(C)C2=O)c1
IC50 [1]: 3.29 µM

Structure (SMILES): CC1(C)CC[C@@]23CC[C@]4(C)[C@](OC2=O)([C@H](F)C[C@@H]2[C@@]5(C)C/C(=C\c6ccc(-c7ccccn7)cc6)C(=O)C(C)(C)[C@@H]5CC[C@]24C)[C@@H]3C1
IC50 [1]: 3.67 µM

Structure (SMILES): CC1(C)CC[C@@]23CC[C@]4(C)[C@](OC2=O)([C@H](F)C[C@@H]2[C@@]5(C)C/C(=C\c6ccc(C(F)(F)F)nc6)C(=O)C(C)(C)[C@@H]5CC[C@]24C)[C@@H]3C1
IC50 [1]: 1.86 µM

Structure (SMILES): CC1(C)CC[C@]2(C(=O)O)CC[C@]3(C)C(=CC[C@@H]4[C@@]5(C)CC[C@H](O)C(C)(C)[C@@H]5CC[C@]43C)[C@@H]2C1 [OLEANOLIC_ACID]
IC50 [1]: 2.41 µM

Structure (SMILES): CC1(C)CC[C@@]23CC[C@]4(C)[C@](OC2=O)([C@H](F)C[C@@H]2[C@@]5(C)CC[C@H](O)C(C)(C)[C@@H]5CC[C@]24C)[C@@H]3C1
IC50 [1]: 8.12 µM

Structure (SMILES): C[C@H]1O[C@H](O[C@H]2[C@H](O)[C@@H](O)[C@@H](O[C@H]3[C@H](O)[C@@H](O)C(O)O[C@@H]3CO)O[C@@H]2CO)[C@H](O)[C@@H](O)[C@@H]1N[C@H]1C=C(CO)[C@@H](O)[C@H](O)[C@H]1O (stereo partly drawn) [ACARBOSE]
Activity [6]: 22.44 mM
Activity [11]: 20.41 mM
Activity [12]: 15.48 mM
IC50 [1]: 579 µM
Activity [13]: 19.14 mM

Structure (SMILES): CC1(C)CC[C@@]23CC[C@]4(C)[C@](OC2=O)([C@H](F)C[C@@H]2[C@@]5(C)C/C(=C\c6ccccc6F)C(=O)C(C)(C)[C@@H]5CC[C@]24C)[C@@H]3C1
IC50 [1]: 1.74 µM

Structure (SMILES): COc1ccc(/C=C2\C[C@]3(C)[C@H]4C[C@@H](F)[C@]56OC(=O)[C@@]7(CCC(C)(C)C[C@H]75)CC[C@@]6(C)[C@]4(C)CC[C@H]3C(C)(C)C2=O)c(OC)c1
IC50 [1]: 1.92 µM

Structure (SMILES): C[C@@H]1C[C@@H]([C@H](O)CC2CC(=O)NC(=O)C2)C(=O)[C@@H](C)C1 [CYCLOHEXIMIDE]
IC50 [7]: 0.25 µM

Structure (SMILES): CC1(C)CC[C@@]23CC[C@]4(C)[C@](OC2=O)([C@H](F)C[C@@H]2[C@@]5(C)CCC(=O)C(C)(C)[C@@H]5CC[C@]24C)[C@@H]3C1
IC50 [1]: 16.7 µM

Structure (SMILES): COc1ncc(F)cc1/C=C1\C[C@]2(C)[C@H]3C[C@@H](F)[C@]45OC(=O)[C@@]6(CCC(C)(C)C[C@H]64)CC[C@@]5(C)[C@]3(C)CC[C@H]2C(C)(C)C1=O
IC50 [1]: 2.05 µM

Structure (SMILES): Cc1ccccc1/C=C1\C[C@]2(C)[C@H]3C[C@@H](F)[C@]45OC(=O)[C@@]6(CCC(C)(C)C[C@H]64)CC[C@@]5(C)[C@]3(C)CC[C@H]2C(C)(C)C1=O
IC50 [1]: 1.58 µM

Structure (SMILES): CC1(C)CC[C@@]23CC[C@]4(C)[C@](OC2=O)([C@H](F)C[C@@H]2[C@@]5(C)C/C(=C\c6ccccc6Br)C(=O)C(C)(C)[C@@H]5CC[C@]24C)[C@@H]3C1
IC50 [1]: 2.51 µM

Structure (SMILES): CC1(C)CC[C@@]23CC[C@]4(C)[C@](OC2=O)([C@H](F)C[C@@H]2[C@@]5(C)C/C(=C\c6ccccn6)C(=O)C(C)(C)[C@@H]5CC[C@]24C)[C@@H]3C1
IC50 [1]: 2.67 µM

Second part, led by results:

IC50 [1]: 1.17 µM
Structure (SMILES): CC1(C)CC[C@@]23CC[C@]4(C)[C@](OC2=O)([C@H](F)C[C@@H]2[C@@]5(C)C/C(=C\c6ccc(Br)cc6F)C(=O)C(C)(C)[C@@H]5CC[C@]24C)[C@@H]3C1

IC50 [1]: 1.54 µM
Structure (SMILES): CC1(C)CC[C@@]23CC[C@]4(C)[C@](OC2=O)([C@H](F)C[C@@H]2[C@@]5(C)C/C(=C\c6ccccc6Cl)C(=O)C(C)(C)[C@@H]5CC[C@]24C)[C@@H]3C1

Ki [4]: 0.52 µM
Km [5]: 120 µM
IC50 [1]: 0.33 µM
Structure (SMILES): COc1ccc(/C=C2\C[C@]3(C)[C@H]4C[C@@H](F)[C@]56OC(=O)[C@@]7(CCC(C)(C)C[C@H]75)CC[C@@]6(C)[C@]4(C)CC[C@H]3C(C)(C)C2=O)cc1
Activity [3]: Active
Activity [6]: 19.96 mM
IC50 [7]: > 300 µM
Activity [8]: Non-Toxic
Activity [9]: Active
Activity [10]: Active
Activity [11]: 17.49 mM
Activity [12]: 13.74 mM
Activity [13]: 18.61 mM

IC50 [1]: 1.29 µM
Structure (SMILES): Cc1ccc(/C=C2\C[C@]3(C)[C@H]4C[C@@H](F)[C@]56OC(=O)[C@@]7(CCC(C)(C)C[C@H]75)CC[C@@]6(C)[C@]4(C)CC[C@H]3C(C)(C)C2=O)cc1

Ki [4]: 0.88 µM
Km [5]: 120 µM
IC50 [1]: 0.69 µM
Structure (SMILES): CC1(C)CC[C@@]23CC[C@]4(C)[C@](OC2=O)([C@H](F)C[C@@H]2[C@@]5(C)C/C(=C\c6ccc(Cl)cc6)C(=O)C(C)(C)[C@@H]5CC[C@]24C)[C@@H]3C1
Activity [14]: Active
Activity [6]: 23.59 mM
IC50 [7]: > 300 µM
Activity [8]: Non-Toxic
Activity [9]: Active
Activity [10]: Active
Activity [11]: 20.25 mM
Activity [12]: 16.22 mM
Activity [13]: 19.59 mM

IC50 [1]: 1.51 µM
Structure (SMILES): CC1(C)CC[C@@]23CC[C@]4(C)[C@](OC2=O)([C@H](F)C[C@@H]2[C@@]5(C)C/C(=C\c6ccc(F)cc6)C(=O)C(C)(C)[C@@H]5CC[C@]24C)[C@@H]3C1

IC50 [1]: 1.06 µM
Structure (SMILES): CC1(C)CC[C@@]23CC[C@]4(C)[C@](OC2=O)([C@H](F)C[C@@H]2[C@@]5(C)C/C(=C\c6ccc(Br)cc6)C(=O)C(C)(C)[C@@H]5CC[C@]24C)[C@@H]3C1

IC50 [15]: 1.9 µM
IC50 [1]: 1.51 µM
Structure (SMILES): CC1(C)CC[C@@]23CC[C@]4(C)[C@](OC2=O)([C@H](F)C[C@@H]2[C@@]5(C)C/C(=C\c6ccc(C(F)(F)F)cc6)C(=O)C(C)(C)[C@@H]5CC[C@]24C)[C@@H]3C1

Ki [4]: 1.49 µM
Km [5]: 120 µM
IC50 [1]: 0.98 µM
Structure (SMILES): CC1(C)CC[C@@]23CC[C@]4(C)[C@](OC2=O)([C@H](F)C[C@@H]2[C@@]5(C)C/C(=C\c6cccc(Cl)c6)C(=O)C(C)(C)[C@@H]5CC[C@]24C)[C@@H]3C1
Activity [14]: Active
Activity [6]: 24.39 mM
IC50 [7]: > 300 µM
Activity [8]: Non-Toxic
Activity [9]: Active
Activity [16]: Active
Activity [10]: Active
Activity [11]: 23.51 mM
Activity [12]: 17.52 mM
Activity [13]: 20.66 mM

Ki [4]: 1.19 µM
Km [5]: 120 µM
IC50 [1]: 0.72 µM
Structure (SMILES): CC1(C)CC[C@@]23CC[C@]4(C)[C@](OC2=O)([C@H](F)C[C@@H]2[C@@]5(C)C/C(=C\c6ccc(Cl)cn6)C(=O)C(C)(C)[C@@H]5CC[C@]24C)[C@@H]3C1
Activity [14]: Active
Activity [6]: 20.51 mM
IC50 [7]: > 300 µM
Activity [8]: Non-Toxic
Activity [9]: Active
Activity [16]: Active
Activity [10]: Active
Activity [11]: 18.29 mM
Activity [12]: 13.13 mM
Activity [13]: 17.45 mM
